The source of these data is US20070219154A1, “Methods for preventing and/or treating a cell proliferative disorder” (priority 2005, published 2007).

pEC50, pIC50: −log10 of the molar value.

Holding throughout (type): cell-based, human
Experiment [1] has as its system pancreatic cancer cell line MiaPaCa2. Nature of the experiment: Soft agar assay, MiaPaCa2. How it is done:
(§1) Cell proliferation was ascertained by soft agar assay. In brief, cells were grown within a matrix of 1.2% soft agar that contained PAR-1 inhibitor at the appropriate concentration. Plates containing cells in the soft agar were incubated at 37° C. for approximately 2 weeks until cell colonies were visible. Cells were then stained by adding 1 mg/ml MTT in PBS and incubating at 37° C. for 1-2 hours. After which the staining solution was removed and plates incubated at 4° C. for 1-2 hours to resolidify agar before scanning.

Experiment [2] has as its system glioma cancer cell line SF295. Nature of the experiment: Soft agar assay, SF295. How it is done:
as §1

Experiment [3] concerns ovarian cancer cell line SKOV-3. Nature of the experiment: Intracellular Ca2+ release (FLIPR) assay, SKOV-3. As to conditions: thrombin 0.1-100 nM, FIG. 14. How it is done:
(§2) As detailed below, intracellular Ca^2+ release was measured in various tumor cell lines treated with thrombin. Likewise, intracellular Ca^2+ release was measured in a subset of those tumor cell lines treated with thrombin and PAR-1 inhibitor Formula 2. In brief, cells were plated into a 96-well plate at a density of 4×10^4 cells per well and allowed to attach overnight at 37° C. prior to loading with Fluo-4AM. Cells were then incubated at 37° C. for 60 minutes. After washing the cells, thrombin as well as the appropriate concentration of PAR-1 inhibitor Formula 2 was added and cells incubated at 37° C. for 30 minutes prior to taking fluorescence readings.

For experiment [4], the system named is pancreatic cancer cell line MiaPaCa2. Nature of the experiment: Intracellular Ca2+ release (FLIPR) assay, MiaPaCa2. As to conditions: thrombin 0.1-100 nM, FIG. 14. As to the method: as §2
Experiment [5] has as its system prostate cancer cell line PC-3. Nature of the experiment: Intracellular Ca2+ release (FLIPR) assay, PC-3. As to conditions: thrombin 0.1-100 nM, FIG. 14. As to the method: as §2
Experiment [6] deals with glioma cell line U373. Nature of the experiment: Intracellular Ca2+ release (FLIPR) assay, U373. As to conditions: thrombin 0.1-100 nM, FIG. 14. As to the method:
as §2

The test system of a further experiment is glioma cell line SNB19. Nature of the experiment: Intracellular Ca2+ release (FLIPR) assay, SNB19. Conditions: thrombin 0.1-100 nM, FIG. 14. How it is done: as §2
The subject of another experiment is glioma cell line SF295. Nature of the experiment: Intracellular Ca2+ release (FLIPR) assay, SF295. As to conditions: thrombin 0.1-100 nM, FIG. 14. As to the method:
as §2

A further experiment relates to glioma cell line U118MG. Nature of the experiment: Intracellular Ca2+ release (FLIPR) assay, U118MG. Conditions: thrombin 0.1-100 nM, FIG. 14. How it is done:
as §2

The next experiment concerns glioma cell line T98G. Nature of the experiment: Intracellular Ca2+ release (FLIPR) assay, T98G. As to conditions: thrombin 0.1-100 nM, FIG. 14. As to the method:
as §2

Experiment [7] has as its system glioma cell line U373. Nature of the experiment: 14C-thymidine incorporation assay, U373. Conditions: thrombin 0.001-1000 nM, 48 hours, FIG. 16. How it is done: (§3) Cell growth proliferation was ascertained by measuring ^14C-thymidine incorporation in various cell lines treated with thrombin in the presence or absence of a PAR-1 inhibitor. In brief, 5×10^3 cells per well were seeded in a 96-well plate and incubated at 37° C. for 1 day. The cells were starved with serum-free medium for 1 day prior to treatment with serum-free media containing 0.5 μCi/ml ^14C-thymidine as well as PAR-1 inhibitor and/or thrombin (where applicable). The cells were then incubated at 37° C. for 48 hours prior to reading radioactivity on a beta counter (1450 Microbeta Plus, Liquid Scintillation Counter (Wallac Software, Perkin Elmer) using the program for ^14C counting on 96-well Cytostar-T scintillating microplate (Amersham Pharmacia Biotech, Piscataway, N.J.).
A general note: Uptake of a labelled nucleoside into DNA is a usual measure of proliferation.

Experiment [8] has as its system pancreatic cancer cell line MiaPaCa2. Nature of the experiment: 14C-thymidine incorporation assay, MiaPaCa2. Conditions: 48 hours. As to the method: as §3
Experiment [9] concerns pancreatic cell line MiaPaCa2. Nature of the experiment: Calcein AM assay, MiaPaCa2. Conditions: 3 days, FIG. 18. As to the method:
(§4) Viability of cells was ascertained using the LIVE/DEAD Viability/Cytotoxicity calcein AM assay [Molecular Probes, technical bulletin MP03224] in the pancreatic cell line MiaPaCa2 and the pancreatic cancer cell line Panc1 following treatment with thrombin, or PAR-1 inhibitor in the presence or absence of thrombin (at a concentration of 10 nM). Calcein AM is a cell-permeant nonflouroescent molecule which is cleaved by esterases found within live cells to create the intensely fluorescent calcein. The polyanionic dye calcein is retained within live cells, producing an intense uniform green fluorescence which can be measured by a fluorescent multiwell plate reader to determine the actual number of live cells in each well. In brief, 1×10^4 cells per well were plated into a 96-well plate and allowed to attach overnight at 37° C. prior to treatment with serum-free media containing 10 nM thrombin as well as the appropriate concentration of PAR-1 inhibitor Formula 2 (5×10^−9; 1×10^−8; 5×10^−8; 1×10^−7; 5×10^−7; 1×10^−6; 5×10^−6; or 1×10^−5 M). Cells were then incubated at 37° C. for 3 days prior to adding Calcein AM reagent and reading fluorescence.

For experiment [10], the system named is pancreatic cancer cell line Panc1. Nature of the experiment: Calcein AM assay, Panc1. Conditions: 3 days, FIG. 18. As to the method:
as §4

On to `CCOC(=O)N[C@@H]1CC[C@@H]2[C@@H](C1)C[C@H]1C(=O)O[C@H](C)[C@H]1[C@H]2/C=C/c1ccc(-c2ccccc2C#N)cn1` [Formula 3], for which the “inhibition of cell proliferation (soft agar assay)” value in experiment [1] (0-10,000 nM, dose-dependent manner) was “inhibited”; in experiment [2] (0-30,000 nM, dose-dependent manner), “inhibited”. For the same molecule, the pIC50 in [1] (Homo sapiens, MIA PaCa-2, 336 h, approximately 2 weeks, FIG. 20, read-out: IC50, cell proliferation (soft agar assay)) was 5.28; in [2] (Homo sapiens, SF-295, 336 h, approximately 2 weeks, FIG. 21, read-out: IC50, cell proliferation (soft agar assay)), 5.21. Moreover, the anti-proliferative effects entry in [1] (at higher doses) and in experiment [2] (at higher doses) was “modest” each time.

With thrombin, the “intracellular Ca2+ release stimulated by thrombin” value (in experiment [3]; in experiment [4]; in [5]; with glioma cell line U373 [6]; in the experiment on glioma cell line SNB19; in the experiment with glioma cell line SF295) was “stimulates” each time. Further, the “intracellular Ca2+ release stimulated by thrombin” value in the experiment on glioma cell line U118MG and in the experiment on glioma cell line T98G was “stimulates” in each case. In addition, the “thrombin-induced cell proliferation (14C-thymidine incorporation)” value with glioma cell line U373 [7] is reported as “dose-dependent”; in experiment [8] (thrombin 10^-4 to 10^2 nM, FIG. 17), “dose-dependent”. Besides, the pEC50 in experiment [8] (read-out: EC50 of thrombin, cell proliferation (14C-thymidine incorporation)) was 10.85. Besides, the “thrombin-induced cell proliferation (calcein AM)” value in experiment [9] is recorded as “dose-dependent”; in [10] it was “minimal”.
